From patent US8772446B2, “Bifunctional chelating agents” (Nordion (Canada) Inc., priority 2010, dated 2014)

Key:
[1] = Solution thermodynamics: formation constants (log KML) and pM of Ga(III) complexes, potentiometric titration; type: physicochemical; settings: Ga(III) complex; ligand-ligand competition with EDTA, potentiometric titration, 25 °C, 0.16 M NaCl
Procedure: A more relevant indicator of the extent to which a metal complex is formed in solution is given by pM (−log free M) which considers the influence of ligand basicity and chelate hydrolysis.
Carbonate-free solutions of the titrant, NaOH, were prepared by dilution of 50% solution (Acros Organics) with freshly boiled MQ water under a stream of purified nitrogen gas. The solution was standardized with potassium acid phthalate and the extent of carbonate accumulation was periodically checked by titration with a standard hydrochloric acid solution and determination of the corresponding Gran titration plot.^47 Gallium ion solutions were prepared by dilution of the appropriate atomic absorption (AA) standard. The exact amount of acid present in the gallium standard was determined by titration of an equimolar solution of Ga and Na2H2EDTA. The amount of acid present was determined by Gran's method.^47
Data were collected in triplicate using PC Control (Version 6.0.91, Metrohm). The titration apparatus consisted of a 10 mL water jacketed glass vessel maintained at 25.0±0.1° C. (Julabo waterbath). Prior to and during the course of the titration, a blanket of nitrogen, passed through 10% NaOH to exclude any CO2, was maintained over the sample solution. The ionic strength was maintained at 0.16 M using NaCl. Prior to each potentiometric equilibrium study, the electrode was calibrated using standard HCl solutions. Calibration data were analysed by standard computer treatment provided within the program MacCalib to obtain the calibration parameters E0 and pKw.
As the degree of formation of Ga(III) complexes at low pH (<2) was too high for the determination of stability constants by use of direct potentiometry, the ligand-ligand competition method using Na2H2EDTA was also performed.

[2] = Biodistribution in female ICR mice; type: in vivo
Procedure: The protocol used in the animal studies was approved by the Institutional Animal Care Committee of the University of British Columbia and was performed in accordance with the Canadian Council on Animal Care Guidelines. A total of 16 female ICR (20-30 g) mice were used for the animal study of each of the three compounds. ^67Ga(dedpa)^+, ^67Ga(66)^+, or ^67Ga(69)^+ was prepared as described above and then diluted in phosphate buffered saline to a concentration of 100 μCi/mL. Each mouse was i.v. injected with ˜10 μCi (100 μL) of the ^67Ga complex and then sacrificed by CO2 inhalation at 30 min, 1 h, 2 h, or 4 h after injection (n=4 at each time point). Blood was collected by cardiac puncture and plasma was separated from whole blood by centrifuging (2500 rpm, 15 min). Urine was collected from the bladder. Tissues collected included kidney, liver, spleen, femur, muscle, heart, lung, intestine and brain. Tissues were weighed and counted on a gamma counter and the counts were converted to % injected dose/gram (% ID/g). Tables 4-6 show the biodistibution data of ^67Ga(dedpa)^+, ^67Ga(66)^+ and ^67Ga(69)^+, respectively, in female ICR mice. FIG. 4 illustrates biodistribution over 4 h of ^67Ga(dedpa)^+ in female ICR mice, and FIG. 5 illustrates biodistribution of ^67Ga(66)^+ (upper) and ^67Ga(69)^+ (lower) in female ICR mice over 4 h; complete data for urine are shown also in separate diagrams to the right.

[3] = Serum stability studies done in vitro (^67Ga); type: in vitro ADME
human apo-transferrin = human apo-transferrin (Homo sapiens, UniProt P02787); test: ^67Ga complex stability: 2-h competition with excess human apo-transferrin, HPLC; settings: ^67Ga complex, up to 2 h
Sequence of human apo-transferrin (P02787 20-698): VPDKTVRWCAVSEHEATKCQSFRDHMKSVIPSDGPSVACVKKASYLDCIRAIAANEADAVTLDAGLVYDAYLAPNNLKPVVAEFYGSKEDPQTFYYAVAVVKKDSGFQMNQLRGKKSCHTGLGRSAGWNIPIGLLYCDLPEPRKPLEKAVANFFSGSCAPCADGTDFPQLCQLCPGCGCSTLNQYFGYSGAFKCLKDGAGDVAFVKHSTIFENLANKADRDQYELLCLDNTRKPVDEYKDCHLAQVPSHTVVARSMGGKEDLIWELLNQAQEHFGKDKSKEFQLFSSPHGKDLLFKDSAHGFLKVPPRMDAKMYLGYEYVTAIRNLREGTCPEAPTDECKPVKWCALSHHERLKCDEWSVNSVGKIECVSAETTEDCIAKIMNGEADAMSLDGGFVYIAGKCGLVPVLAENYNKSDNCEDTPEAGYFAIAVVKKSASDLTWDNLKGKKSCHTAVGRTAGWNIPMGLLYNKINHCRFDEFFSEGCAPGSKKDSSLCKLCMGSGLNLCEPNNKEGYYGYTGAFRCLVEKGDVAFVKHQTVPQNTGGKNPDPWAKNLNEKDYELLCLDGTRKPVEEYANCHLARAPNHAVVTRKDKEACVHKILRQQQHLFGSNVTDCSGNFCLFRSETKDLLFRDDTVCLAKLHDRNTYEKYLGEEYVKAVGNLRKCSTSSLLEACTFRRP
Procedure: FIG. 13 illustrates stacked labelling traces of ^67Ga(dedpa)^+ of 2 h stability experiment against apo-transferrin (gradient: A: NaOAc buffer, pH 4.5, B: MeOH. 0-100% B linear gradient 20 min).

SMILES: O=C(O)c1cccc(CNCCNCc2cccc(C(=O)O)n2)n1 [^67Ga(dedpa)^+, metal not drawn]
- log KML [1]: 28.11(8)
- Biodistribution, Brain, 30 min ([2]; Brain, 30 min after i.v. injection, mean ± SD, 4 animals): 0.264 ± 0.132 % ID/g
- Biodistribution, Brain, 1 h ([2]; Brain, 1 h after i.v. injection, mean ± SD, 4 animals): 0.246 ± 0.123 % ID/g
- Biodistribution, Brain, 2 h ([2]; Brain, 2 h after i.v. injection, mean ± SD, 4 animals): 0.213 ± 0.106 % ID/g
- Biodistribution, Brain, 4 h ([2]; Brain, 4 h after i.v. injection, mean ± SD, 4 animals): 0.139 ± 0.069 % ID/g
- Biodistribution, Femur, 30 min ([2]; Femur, 30 min after i.v. injection, mean ± SD, 4 animals): 2.180 ± 1.090 % ID/g
- Biodistribution, Femur, 1 h ([2]; Femur, 1 h after i.v. injection, mean ± SD, 4 animals): 2.136 ± 1.068 % ID/g
- Biodistribution, Femur, 2 h ([2]; Femur, 2 h after i.v. injection, mean ± SD, 4 animals): 1.893 ± 0.946 % ID/g
- Biodistribution, Femur, 4 h ([2]; Femur, 4 h after i.v. injection, mean ± SD, 4 animals): 2.218 ± 1.109 % ID/g
- Biodistribution, Heart, 30 min ([2]; Heart, 30 min after i.v. injection, mean ± SD, 4 animals): 2.645 ± 1.323 % ID/g
- Biodistribution, Heart, 1 h ([2]; Heart, 1 h after i.v. injection, mean ± SD, 4 animals): 2.490 ± 1.245 % ID/g
- Biodistribution, Heart, 2 h ([2]; Heart, 2 h after i.v. injection, mean ± SD, 4 animals): 2.412 ± 1.206 % ID/g
- Biodistribution, Heart, 4 h ([2]; Heart, 4 h after i.v. injection, mean ± SD, 4 animals): 2.004 ± 1.002 % ID/g
- Biodistribution, Intestine, 30 min ([2]; Intestine, 30 min after i.v. injection, mean ± SD, 4 animals): 2.099 ± 1.050 % ID/g
- Biodistribution, Intestine, 1 h ([2]; Intestine, 1 h after i.v. injection, mean ± SD, 4 animals): 2.123 ± 1.062 % ID/g
- Biodistribution, Intestine, 2 h ([2]; Intestine, 2 h after i.v. injection, mean ± SD, 4 animals): 1.995 ± 0.998 % ID/g
- Biodistribution, Intestine, 4 h ([2]; Intestine, 4 h after i.v. injection, mean ± SD, 4 animals): 1.990 ± 0.995 % ID/g
- Biodistribution, Kidney, 30 min ([2]; Kidney, 30 min after i.v. injection, mean ± SD, 4 animals): 8.089 ± 4.009 % ID/g
- Biodistribution, Kidney, 1 h ([2]; Kidney, 1 h after i.v. injection, mean ± SD, 4 animals): 7.827 ± 3.914 % ID/g
- Biodistribution, Kidney, 2 h ([2]; Kidney, 2 h after i.v. injection, mean ± SD, 4 animals): 9.149 ± 4.575 % ID/g
- Biodistribution, Kidney, 4 h ([2]; Kidney, 4 h after i.v. injection, mean ± SD, 4 animals): 8.301 ± 4.150 % ID/g
- Biodistribution, Liver, 30 min ([2]; Liver, 30 min after i.v. injection, mean ± SD, 4 animals): 3.702 ± 1.851 % ID/g
- Biodistribution, Liver, 1 h ([2]; Liver, 1 h after i.v. injection, mean ± SD, 4 animals): 3.695 ± 1.847 % ID/g
- Biodistribution, Liver, 2 h ([2]; Liver, 2 h after i.v. injection, mean ± SD, 4 animals): 3.173 ± 1.586 % ID/g
- Biodistribution, Liver, 4 h ([2]; Liver, 4 h after i.v. injection, mean ± SD, 4 animals): 2.736 ± 1.368 % ID/g
- Biodistribution, Lung, 30 min ([2]; Lung, 30 min after i.v. injection, mean ± SD, 4 animals): 4.878 ± 2.439 % ID/g
- Biodistribution, Lung, 1 h ([2]; Lung, 1 h after i.v. injection, mean ± SD, 4 animals): 4.896 ± 2.448 % ID/g
- Biodistribution, Lung, 2 h ([2]; Lung, 2 h after i.v. injection, mean ± SD, 4 animals): 4.846 ± 2.423 % ID/g
- Biodistribution, Lung, 4 h ([2]; Lung, 4 h after i.v. injection, mean ± SD, 4 animals): 3.260 ± 1.630 % ID/g
- Biodistribution, Muscle, 30 min ([2]; Muscle, 30 min after i.v. injection, mean ± SD, 4 animals): 1.210 ± 0.605 % ID/g
- Biodistribution, Muscle, 1 h ([2]; Muscle, 1 h after i.v. injection, mean ± SD, 4 animals): 1.153 ± 0.576 % ID/g
- Biodistribution, Muscle, 2 h ([2]; Muscle, 2 h after i.v. injection, mean ± SD, 4 animals): 1.092 ± 0.546 % ID/g
- Biodistribution, Muscle, 4 h ([2]; Muscle, 4 h after i.v. injection, mean ± SD, 4 animals): 1.127 ± 0.564 % ID/g
- Biodistribution, Serum, 30 min ([2]; Serum, 30 min after i.v. injection, mean ± SD, 4 animals): 16.067 ± 8.033 % ID/g
- Biodistribution, Serum, 1 h ([2]; Serum, 1 h after i.v. injection, mean ± SD, 4 animals): 9.047 ± 4.524 % ID/g
- Biodistribution, Serum, 2 h ([2]; Serum, 2 h after i.v. injection, mean ± SD, 4 animals): 12.042 ± 6.021 % ID/g
- Biodistribution, Serum, 4 h ([2]; Serum, 4 h after i.v. injection, mean ± SD, 4 animals): 12.235 ± 6.118 % ID/g
- Biodistribution, Spleen, 30 min ([2]; Spleen, 30 min after i.v. injection, mean ± SD, 4 animals): 1.366 ± 0.683 % ID/g
- Biodistribution, Spleen, 1 h ([2]; Spleen, 1 h after i.v. injection, mean ± SD, 4 animals): 1.357 ± 0.679 % ID/g
- Biodistribution, Spleen, 2 h ([2]; Spleen, 2 h after i.v. injection, mean ± SD, 4 animals): 1.273 ± 0.637 % ID/g
- Biodistribution, Spleen, 4 h ([2]; Spleen, 4 h after i.v. injection, mean ± SD, 4 animals): 0.989 ± 0.495 % ID/g
- Excretion route (in words) ([2]; mice, i.v.): excreted mainly through the kidneys
- Time to clearance from background tissue, such as muscle ([2]; mice, i.v.): ≤ 30 min
- Bone uptake (in words) ([2]; mice, i.v., indicator for complex stability): low uptake in bone
- Serum stability in vitro (in words) [3]: stable to transchelation by serum proteins
- Complex stability against apo-transferrin (in words) (human apo-transferrin; listed as 67/68Ga(dedpa)^+): No decomposition was detected
- Complex stability against apo-transferrin (in words) (human apo-transferrin; listed as 67Ga(dedpa)^+): fully intact
- Complex stability against apo-transferrin (in words) (human apo-transferrin; listed as Ga(dedpa)^+): no decomposition was detected
